Results reported in patent publication US20250206714A1, “COMPOSITIONS AND METHODS FOR TREATMENT OF INFLAMMATORY DISEASES” (Invea Therapeutics, Inc., priority 2022, published 2025).

Experiments:
[1] = target: T1, CYP 2C9 (Homo sapiens, UniProt P11712); assay: Metabolic stability in human liver microsomes with CYP 2C9 inhibitor Sulfaphenazole; format: in vitro ADME; conditions: 1 μM + Sulfaphenazole (20 μM)
T1 construct: The experiment was conducted in human liver microsomes; from tissue; host or cells: human liver microsomes

[2] = in vitro; conditions: for % rem @ 5 min / % rem @ 15 min / % rem @ 30 min / % rem @ 45 min: 1 µM; for % rem @ 5 min / % rem @ 15 min / % rem @ 30 min / % rem @ 45 min / half-life at 1 µM / microsomal CLint at 1 μM: pH 7.4; for half-life at 1 µM / microsomal CLint at 1 μM: microsomes
Description: All the tubes were pre-incubated at 37 t 1° C. for 5 min in a shaking water bath. Tubes of NADPH solution (10 mM) were similarly pre-incubated in similar conditions. After pre-incubation, 20 μL NADPH solution (10 mM) was added to the T0, T5, T15, T30, and T45 tubes, and 20 μL of buffer was added to the TControl tube which makes the final concentration to 1 μM respectively. T0 was immediately quenched with 200 μL of quenching solution containing warfarin as internal standard (IS). Similarly, at the end of the incubation period (5, 15, 30, and 45 minutes) of respective tubes, 200 μL of quenching solution containing warfarin as internal standard (IS) was added to each tube to stop the reaction. Resulting samples were centrifuged at 3220 g (relative centrifugal force) for 20 min. Supernatant (200 μL) from each reaction tube was taken for LC-MS/MS analysis.

[3] = tested on: IL-1β; assay: In vitro inhibition of production of IL-1β in PMA-differentiated THP-1 cells (LPS + ATP, ELISA); format: cell-based, Human; conditions: THP-1 derived macrophages
Description: The procedures detailed here can be utilized for testing all compounds of the disclosure.
(§1) Human monocytic THP-1 cells were treated with phorbol 12-myristate 13 acetate (PMA) (100 nM) overnight to differentiate monocytic cells into macrophages. Then, after 24 hours of rest, the differentiated cells were incubated with test compounds for 12 hours at concentrations 0.01, 0.1, 1, 10, 30, and 50 μM. Cells were then washed once with PBS and primed with E. coli LPS (0.1 μg/ml) for 4 h followed by stimulation with ATP (5 μM) for an additional 30 min. The cell culture supernatants were then collected and OD values for IL-1β levels were measured by ELISA. The standard curve (OD VS concentration) for IL-1β was also plotted and used to determine the IL-1β concentration for the OD values. The percentage of inhibition of IL-1β was calculated using the formula: […]
(§2) The percentage IL-1β inhibition at different compound concentrations were plotted in a sigmoid curve and IC50 values were interpolated in Graphpad Prism. Cell death was evaluated by propidium iodide staining and OD was measured at 490 nm. Cell viability was estimated with respect to DMSO control.

[4] = Solubility analysis (kinetic method, PBS pH 7.4); format: physicochemical; conditions: phosphate buffered saline, aqueous buffer, kinetic from dmso stock, phosphate buffer saline (pH-7.4)
Description: Seven level calibration standards (i.e., 1, 5, 10, 50, 100, 200 and 300 μM) of the test compound were prepared from 20 mM primary stock solution in DMSO. An aliquot of 198 μL of PBS (pH-7.4) was dispensed into duplicate wells of a multiscreen solubility filter plate. Subsequently, 2 μL of test compound solution from 20 mM primary stock solution was added to give a final concentration of 200 μM, the plate was covered and shaken at 150 rotations per minute for 90 minutes. At the end of 90 minutes, samples were filtered using MultiScreen HTS vacuum Manifold assembly and the filtrates were collected into the acceptor plate. An aliquot of 150 μL of filtrate from the above 96-well acceptor plate were transferred into HPLC vials and analyzed by HPLC-PDA. Solubility was determined by comparing the absorbance of test/reference compound against the respective DMSO calibration curve.

[5] = target: CYP 3A4 (Homo sapiens, UniProt P08684); assay: Metabolic stability in human liver microsomes with CYP 3A4 inhibitor Ketoconazole; conditions: 1 μM + Ketoconazole (20 μM)
[6] = tested on: THP-1 cells; assay: Cell viability by propidium iodide staining; format: cell-based; conditions: at 10 μM; with respect to DMSO control
Description: as §1, §2

[7] = target: T2, CYP2D6 (Homo sapiens, UniProt P10635); assay: Metabolic stability in human liver microsomes with CYP 2D6 inhibitor Quinidine; format: in vitro ADME; conditions: 1 μM + Quinidine (20 μM)
T2 construct: The experiment was conducted in human liver microsomes; from tissue; host or cells: human liver microsomes

[8] = Metabolic stability assay in human liver microsomes in the presence of specific cytochrome P450 inhibitors (arm without inhibitor, summary statements)
[9] = tested on: MDR1; assay: in vitro; design: Papp A→B at 60 min / Papp B→A at 60 min / efflux ratio at 60 min / recovery at 60 min / % recovery Apical concentration-Basal concentration / % recovery Basal concentration-Apical concentration: dose or concentration left out as unconfirmed; conditions: dog, MDCK-MDR1
Description: (§3) Digoxin is used as reference and lucifer yellow is used as the integrity marker. […] Papp, efflux ratio and percent recovery are calculated.

[10] = tested on: MDR1 (P-gp); assay: in vitro; design: Papp A→B at 60 min / Papp B→A at 60 min / efflux ratio at 60 min / recovery at 60 min / % recovery Apical concentration-Basal concentration / % recovery Basal concentration-Apical concentration: dose or concentration left out as unconfirmed; conditions: dog
Description: as §3

[11] = human liver microsomes, 1 μM, no inhibitor
[12] = human, human liver microsomes, pH 7.4

CYP 3A4, sequence (P08684 whole entry): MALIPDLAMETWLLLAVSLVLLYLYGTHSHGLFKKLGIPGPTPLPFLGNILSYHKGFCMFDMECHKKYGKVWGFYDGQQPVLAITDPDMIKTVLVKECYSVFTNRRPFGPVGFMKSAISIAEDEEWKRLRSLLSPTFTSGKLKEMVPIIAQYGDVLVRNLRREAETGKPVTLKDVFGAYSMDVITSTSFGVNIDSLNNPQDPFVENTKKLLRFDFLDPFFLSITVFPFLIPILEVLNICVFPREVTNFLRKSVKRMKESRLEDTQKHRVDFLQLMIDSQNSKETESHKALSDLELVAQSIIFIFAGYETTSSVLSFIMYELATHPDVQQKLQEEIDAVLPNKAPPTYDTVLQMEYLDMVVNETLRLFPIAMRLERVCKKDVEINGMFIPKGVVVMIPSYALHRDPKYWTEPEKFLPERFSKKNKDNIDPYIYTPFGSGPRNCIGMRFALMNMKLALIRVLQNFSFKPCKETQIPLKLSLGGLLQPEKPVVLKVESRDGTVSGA
T1 sequence (P11712 whole entry): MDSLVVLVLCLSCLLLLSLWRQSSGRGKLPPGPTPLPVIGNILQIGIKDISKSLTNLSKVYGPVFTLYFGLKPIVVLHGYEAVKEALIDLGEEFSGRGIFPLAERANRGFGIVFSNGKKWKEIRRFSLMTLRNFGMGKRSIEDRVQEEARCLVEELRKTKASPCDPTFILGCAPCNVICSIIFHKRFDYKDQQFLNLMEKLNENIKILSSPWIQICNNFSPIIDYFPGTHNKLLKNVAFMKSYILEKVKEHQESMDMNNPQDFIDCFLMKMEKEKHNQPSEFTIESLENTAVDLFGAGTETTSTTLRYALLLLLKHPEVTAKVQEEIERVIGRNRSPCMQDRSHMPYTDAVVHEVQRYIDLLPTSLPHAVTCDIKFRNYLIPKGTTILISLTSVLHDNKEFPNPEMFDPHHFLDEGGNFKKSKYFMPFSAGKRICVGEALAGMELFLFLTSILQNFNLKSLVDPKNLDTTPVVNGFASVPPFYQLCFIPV
T2 sequence (P10635 whole entry): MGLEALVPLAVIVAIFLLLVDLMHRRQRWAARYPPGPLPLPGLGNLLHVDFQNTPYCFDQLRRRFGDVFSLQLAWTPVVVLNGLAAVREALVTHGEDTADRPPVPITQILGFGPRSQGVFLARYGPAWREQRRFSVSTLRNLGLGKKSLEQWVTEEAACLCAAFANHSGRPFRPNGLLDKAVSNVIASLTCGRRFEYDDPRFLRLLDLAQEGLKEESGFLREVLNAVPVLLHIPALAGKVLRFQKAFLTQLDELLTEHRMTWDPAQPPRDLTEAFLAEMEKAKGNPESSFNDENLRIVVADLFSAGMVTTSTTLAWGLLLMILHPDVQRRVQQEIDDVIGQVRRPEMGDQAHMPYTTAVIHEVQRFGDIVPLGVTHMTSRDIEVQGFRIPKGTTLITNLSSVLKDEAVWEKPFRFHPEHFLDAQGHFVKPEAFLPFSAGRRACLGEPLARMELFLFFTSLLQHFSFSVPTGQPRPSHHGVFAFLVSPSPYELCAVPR

In the case of `O=C1Nc2ccccc2N(C(=O)CCl)c2ccc(F)cc21` [Compound 6, 5-(2-chloroacetyl)-2-fluoro-5,10-dihydro-11H-dibenzo[b,e][1,4]diazepin-11-one], the “% rem @ 5 min” value [1] is reported as 69.7%, the “% rem @ 15 min” value [1] is reported as 63.3% and the “% rem @ 30 min” value [1] is reported as 73.8%. The “% rem @ 45 min” value [1] was 54.3%, the half-life at 1 µM ([1]; pH 7.4, with Sulfaphenazole 20 μM) was 1.28 h and the microsomal CLint at 1 μM ([1]; pH 7.4, with Sulfaphenazole 20 μM, read-out: mCLint) was 18 µL/min/mg. For the same molecule, the “stability / metabolism by liver microsomes (in words)” value [2] was “medium to highly stability”, the “% rem @ 5 min” value ([2]; human) was 93.5% and the “% rem @ 15 min” value ([2]; human) was 92.9%. The “% rem @ 30 min” value ([2]; human) was 91.3%, the “% rem @ 45 min” value ([2]; human) was 67.8% and the half-life at 1 µM ([2]; human) was 1.6 h. The microsomal CLint at 1 μM ([2]; human) was 14.4 µL/min/mg, the “% rem @ 5 min” value ([2]; mouse) was ~100% and the “% rem @ 15 min” value ([2]; mouse) was ~100%. The “% rem @ 30 min” value ([2]; mouse) was 79.3%, the “% rem @ 45 min” value ([2]; mouse) was 59.8% and the half-life at 1 µM ([2]; mouse) was 0.95 h. For the same molecule, the microsomal CLint at 1 μM ([2]; mouse) was 24.3 µL/min/mg, the “% rem @ 5 min” value ([2]; rat) was 98.7% and the “% rem @ 15 min” value ([2]; rat) was 83.1%. For the same molecule, the “% rem @ 30 min” value ([2]; rat) was 75.3%, the “% rem @ 45 min” value ([2]; rat) was 74.0% and the half-life at 1 µM ([2]; rat) was 1.58 h. The microsomal CLint at 1 μM ([2]; rat) was 14.6 µL/min/mg, the “IL-1β levels under in vitro conditions (FIG. 3, percentage of cytokine inhibition against concentration)” value [3] was “dose dependent decrease in IL-1β levels” and the solubility at 90 min [4] was > 200 µM. For the same molecule, the “% rem @ 5 min” value [5] was 81.9%, the “% rem @ 15 min” value [5] was 81.5% and the “% rem @ 30 min” value [5] was 61.8%. For the same molecule, the “% rem @ 45 min” value [5] was 52.9%, the cell viability [6] was 99% and the “% rem @ 5 min” value [7] was 80.8%. For the same molecule, the “% rem @ 15 min” value [7] was 67.3%, the “% rem @ 30 min” value [7] was 57.4% and the “% rem @ 45 min” value [7] was 60.1%. For the same molecule, the half-life at 1 µM ([7]; pH 7.4, with quinidine 20 µM) was 1.07 h, the microsomal CLint at 1 μM ([7]; pH 7.4, with quinidine 20 µM, read-out: mCLint) was 21.6 µL/min/mg and the “stability in human liver microsomes (in words)” value ([8]; human liver microsomes) was “medium to highly stability”. For the same molecule, the degradation ([8]; human liver microsomes, in presence of specific CYP inhibitors) was 40-45%, the “% rem @ 5 min” value [8, 11] was 93.5% and the “% rem @ 15 min” value [8, 11] was 92.9%. For the same molecule, the “% rem @ 30 min” value [8, 11] was 91.3%, the “% rem @ 45 min” value [8, 11] was 67.8% and the half-life at 1 µM [8, 12] was 1.6 h. The microsomal CLint at 1 μM [8, 12] was 14.4 µL/min/mg, the degradation ([8]; incubated in human liver microsomes, no inhibitor) was ~35% and the Papp A→B at 60 min [9] was 260 nm/s. The Papp A→B at 60 min, 5 µM [9] was 260 nm/s, the Papp B→A at 60 min [9] was 316 nm/s and the efflux ratio at 60 min, 5 µM [9] was < 2. For the same molecule, the efflux ratio at 60 min ([10]; MDCK-MDR1) was 1.22, the recovery at 60 min ([10]; MDCK-MDR1, % recovery Apical concentration-Basal concentration) was 49.1% and the recovery at 60 min ([10]; MDCK-MDR1, % recovery Basal concentration-Apical concentration) was ~100%.
